Laboratory results taken from patent publication US20240199572A1, “COMPOUNDS, COMPOSITIONS, AND METHODS FOR TREATING TYPE 2 DIABETES AND DEMENTIA” (THE BOARD OF TRUSTEES OF THE UNIVERSITY OF ILLINOIS, priority 2021, published 2024).

Tests used:
ABCA1 = assay: ABCA1-linked luciferase assay in HepG2 cells; format: cell-based
Procedure: Luciferase. HepG2 cells (RRID:CVCL 0027) purchased from ATCC and used without further validation were stably transfected with pGreenFire1-LXRE-in-ABCA1 plasmid, which contains the ABCA1 promoter sequence linked to a luciferase response element, then selected over multiple generations with puromycin and frozen in liquid N2. For assays, transfected cells were plated 24 hours in medium (Gibco) containing charcoal-stripped serum (Gemini), followed by a 24-hour treatment. Cells were lysed with passive lysis buffer (Promega), frozen at −80° C. for 15 minutes, and shaken at room temperature for 2 hours before quantification with luciferase assay system (Promega) on a Synergy Neo2 plate reader.

ABCA1 protein = ABCA1 protein - J774 (immunoblot); format: cell-based
Procedure: In vitro Immunoblot. Cells were lysed with RIPA buffer (Sigma) containing protease/phosphatase inhibitors (Cocktails II and III, respectively, EMD Millipore). Protein was quantified by BCA assay (Thermo Fisher Scientific). Denatured proteins were separated by gel electrophoresis (NuPage™ 4-12% Bis-Tris, Invitrogen) in MOPS running buffer at 120 V for 1 hour. Proteins were transferred to PDVF membranes (iBlot2). Membrane was blocked in 5% skim milk for 1 hour, incubated with primary antibody at 4° C. overnight, washed with TBST, and then incubated with HRP-linked secondary antibody (Cell Signaling Technology) for 1 hour at room temperature. After TBST wash, membrane was imaged using SUPERSIGNAL® West Femto™ substrate (Thermo Fisher Scientific) on Azure Biosystems c400 imager. Antibodies used: Abcam ab18180 (ABCA1, RRID:AB 444302), Thermo Fisher MA5-11685 (SREBP1, RRID:AB_10984077), Invitrogen MA5-15738 (GAPDH, RRID:AB_10977387).

J774 cells = assay: Lipopolysaccharide-stimulated J774 cells, TNFα and NOS2; format: cell-based; details: co-treatment
Description: qRT-PCR. For cell samples, treated cells were lysed with RLT plus lysis buffer (Qiagen). RNA was isolated with Qiagen RNEASY® Plus columns per manufacturer instructions, then reverse-transcribed to cDNA using […]® III Reverse Transcriptase (200 U/μL, Invitrogen) per supplier protocol. qPCR experiments were either performed with TAQMAN® gene expression master mix (Invitrogen) on a StepOne™ qPCR instrument or with […]® SYBR® Green SuperMix (Quanta Biosciences) on CFX Connect™ Real-Time PCR Detection System (BioRad), with fold-change quantified by ΔΔCt. For animal samples, 100 mg tissue was homogenized in 1 mL acid-guanidinium-phenol based reagent sold under the tradename TRIZOL® (Ambion), mixed vigorously in chloroform, and separated by centrifugation. Aqueous layer containing RNA was added to Qiagen RNEASY® Plus column; remaining stops were as described above for cell lysates.

RXRγ = target: T1, RXRγ (Homo sapiens, UniProt P48443); assay: RXRγ NHR screen, antagonist mode; details: cell-based β-gal reporter assay, 10 μM
T1 sequence (P48443 1-463): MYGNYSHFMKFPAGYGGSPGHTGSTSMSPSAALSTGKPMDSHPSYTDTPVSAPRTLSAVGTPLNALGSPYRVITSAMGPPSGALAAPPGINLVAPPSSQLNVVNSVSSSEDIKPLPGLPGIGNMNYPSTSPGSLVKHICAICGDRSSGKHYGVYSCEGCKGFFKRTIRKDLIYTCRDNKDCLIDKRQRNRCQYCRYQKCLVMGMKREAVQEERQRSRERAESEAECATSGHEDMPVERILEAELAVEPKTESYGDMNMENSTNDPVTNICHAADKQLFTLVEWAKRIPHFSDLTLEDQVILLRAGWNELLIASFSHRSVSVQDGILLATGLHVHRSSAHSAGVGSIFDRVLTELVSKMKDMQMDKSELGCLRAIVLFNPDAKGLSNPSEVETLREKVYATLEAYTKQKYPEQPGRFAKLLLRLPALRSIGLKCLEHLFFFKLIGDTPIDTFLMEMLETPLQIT
Procedure: (§1) Receptor Binding Assays. Nuclear hormone (NHR) assays were performed by DiscoverX (Fremont, CA) on their NHR-Scan platform of cell-based protein-protein interaction assays. This platform uses a […] reporter that activates upon interaction of full-length receptor protein with steroid coactivator receptor peptides. In agonist mode, activity of CL2-57 at 10 μM was compared to maximal activity of published positive control agonists; in antagonist mode, reduction in activity with 10 μM CL2-57 from that observed at […] of published agonists was quantified.

PPARγ = target: T2, PPARγ (Homo sapiens, UniProt P37231); assay: PPARγ NHR screen, antagonist mode; details: cell-based β-gal reporter assay, 10 μM
T2 sequence (P37231 1-505): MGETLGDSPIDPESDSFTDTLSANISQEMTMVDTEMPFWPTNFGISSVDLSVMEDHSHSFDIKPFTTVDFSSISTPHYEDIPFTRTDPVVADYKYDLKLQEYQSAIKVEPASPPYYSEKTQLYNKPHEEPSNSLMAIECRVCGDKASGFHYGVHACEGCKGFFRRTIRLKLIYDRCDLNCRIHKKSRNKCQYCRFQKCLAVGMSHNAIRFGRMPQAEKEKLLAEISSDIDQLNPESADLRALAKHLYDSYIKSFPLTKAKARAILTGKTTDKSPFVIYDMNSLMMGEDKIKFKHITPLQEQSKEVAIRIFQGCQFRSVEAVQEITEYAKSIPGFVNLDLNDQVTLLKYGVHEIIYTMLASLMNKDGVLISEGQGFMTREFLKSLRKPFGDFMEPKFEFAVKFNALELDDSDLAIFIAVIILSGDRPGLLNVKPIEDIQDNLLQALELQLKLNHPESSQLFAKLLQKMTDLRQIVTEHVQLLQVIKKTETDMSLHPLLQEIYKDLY
Procedure: as §1

CCOC(=O)c1cccc(NC(=O)c2sc(Cl)cc2S(=O)(=O)N(C)c2ccc(OCC)c(OCC)c2)c1 [CL2-57, ethyl 3-(5-chloro-3-(N-(3,4-diethoxyphenyl)-N-methylsulfamoyl)thiophene-2-carboxamido) benzoate]
ABCA1 luciferase, activity of CL2-57 (10 μM) as % of T0901317 (1 μM) (ABCA1; 10 μM): 127%
Emax, ABCA1-linked luciferase activity (ABCA1; HepG2 liver cells): 250 % of vehicle
EC50 (ABCA1; Homo sapiens, HepG2 liver cells, read-out: EC50, ABCA1-linked luciferase activity): 1.8 µM
ABCA1-linked luminescence with CL2-57 titration (ABCA1; in the presence of RXR agonist bexarotene, increased from 2.5-fold): 4.5 fold
ABCA1-linked luminescence with CL2-57 titration (ABCA1; in the presence of pan-LXR agonist T0901317): no increase
ABCA1 protein - J774, activity of CL2-57 (10 μM) as % of T0901317 (1 μM) (ABCA1 protein; 10 μM): 132%
ABCA1 protein (ABCA1 protein; J774 macrophage cells): Increased
LPS-induced increase of NOS2 (J774 cells): dose-dependently reversed
LPS-induced increase of TNFα (J774 cells): dose-dependently reversed
Functional mode at RXRγ (RXRγ): weak antagonist
Functional mode at PPARγ (PPARγ): weak antagonist
